Patent publication US9988420B2, “Cytotoxic peptides and conjugates thereof” (priority 2013, dated 2018)
Where two headings read alike, the source gives them in different places. Starred links: 1 amine or outer side, 2 acyl side, 3 side chain; linkers in the order of their positions; H or OH if unused. Non-standard residues stand in square brackets, D forms with d. Residues, ends and D or L forms follow the SMILES beside them. *: point of attachment. Dolaproine = CO[C@@H]([C@@H]1CCCN1)[C@@H](C)C(=O)O; X1 = O=C([C@@H]1[C@H]2CC[C@H](C2)N1[*:1])[*:2]; X3 = NC(=O)CN1[C@@H]2CC[C@@H](C2)[C@H]1C(=O)*; Dil = CC[C@H](C)[C@H](NC)[C@@H](CC(=O)O)OC; X4 = N#CCN1[C@@H]2CC[C@@H](C2)[C@H]1C(=O)*; X2 = CN1[C@@H]2CC[C@@H](C2)[C@H]1C(=O)*; Phe(ol) = N[C@H](CO)Cc1ccccc1

Legend:
Experiment in all cases: In vitro cell killing assay of payloads (cell proliferation, Cell-Titer-Glo)
Type in all cases: cell-based
NCI-N87 cells = conditions: Homo sapiens, 120 h, Cell-Titer-Glo after five days
Description: (§1) For evaluation of the cell killing potency of the cytotoxic peptides of Formula (I) in vitro, cell proliferation assays were performed in parallel with 8 cell lines: MDA-MB231 clone 16, clone 40, JimT1, HCC1954, H526, KU812, CMK11-5 cells and Jurkat cells. In addition, in vitro, cell proliferation assays were performed using 3 other cell lines: A375, SKBR3 and NCI-N87. All the cell lines are described in more detail in Example 106 and were also used to assess the in vitro potency of immunoconjugates of the invention. The cell proliferation assays were conducted with Cell-Titer-Glo™ (Promega) five days after cells were incubated with various concentrations of ADCs (Riss et al., (2004) Assay Drug Dev Technol. 2:51-62).

A375 cells = conditions: Homo sapiens, A-375, 120 h, Cell-Titer-Glo after five days
Description: as §1

JimT1 cells = conditions: Homo sapiens, JIMT-1, 120 h, read-out: In vitro cell killing (IC50 (nM)) JimT1
HCC1954 cells = conditions: Homo sapiens, read-out: In vitro cell killing (IC50 (nM)) HCC1954
H526 cells = conditions: Homo sapiens, read-out: In vitro cell killing (IC50 (nM)) NCI-H526
[1] = JimT1 cells, Cell-Titer-Glo after five days, Table 2b
[2] = 120 h, HCC1954 cells, Cell-Titer-Glo after five days, Table 2b
[3] = 120 h, NCI-H526 cells, Cell-Titer-Glo after five days, Table 2b

Row | SMILES | IC50 (NCI-N87 cells) | IC50 (A375 cells) | IC50 (JimT1 cells; [1]) | IC50 (HCC1954 cells; [2]) | IC50 (H526 cells; [3]) | IC50 (JimT1 cells) | IC50 (HCC1954 cells; HCC1954, 120 h) | IC50 (H526 cells; NCI-H526, 120 h)
1 | CC[C@H](C)[C@@H]([C@@H](CC(=O)N1CCC[C@H]1[C@H](OC)[C@@H](C)C(=O)N[C@@H](Cc1ccccc1)C(=O)O)OC)N(C)C(=O)[C@@H](NC(=O)[C@@H]1[C@H]2CC[C@H](C2)N1C)C(C)C [Compound 54, (S)-2-((2R,3R)-3-((S)-1-((3R,4S,5S)-4-((S)-N,3-Dimethyl-2-((1R,3S,4S)-2-methyl-2-azabicyclo[2.2.1]heptane-3-carboxamido)butanamido)-3-methoxy-5-methylheptanoyl)pyrrolidin-2-yl)-3-methoxy-2-methylpropanamido)-3-phenylpropanoic acid] (X2-V[Dil][Dolaproine]F-OH) | 7.59 nM | 27.4 nM | 17.1 nM | 7.18 nM | 54.8 nM |  |  | 
2 | CC[C@H](C)[C@@H]([C@@H](CC(=O)N1CCC[C@H]1[C@H](OC)[C@@H](C)C(=O)N[C@H](CO)Cc1ccccc1)OC)N(C)C(=O)[C@@H](NC(=O)[C@@H]1[C@H]2CC[C@H](C2)N1CC#N)C(C)C [Compound 63, (1R,3S,4S)-2-(Cyanomethyl)-N-((S)-1-(((3R,4S,5S)-1-((S)-2-((1R,2R)-3-(((S)-1-hydroxy-3-phenylpropan-2-yl)amino)-1-methoxy-2-methyl-3-oxopropyl)pyrrolidin-1-yl)-3-methoxy-5-methyl-1-oxoheptan-4-yl)(methyl)amino)-3-methyl-1-oxobutan-2-yl)-2-azabicyclo[2.2.1]heptane-3-carboxamide] (X4-V[Dil][Dolaproine][Phe(ol)]) | 2.09 nM | 14.3 nM | 5.08 nM | 1.64 nM | 6.49 nM |  |  | 
3 | CC[C@H](C)[C@@H]([C@@H](CC(=O)N1CCC[C@H]1[C@H](OC)[C@@H](C)C(=O)N[C@H](CO)Cc1ccccc1)OC)N(C)C(=O)[C@@H](NC(=O)[C@@H]1[C@H]2CC[C@H](C2)N1CC(N)=O)C(C)C [Compound 64, (1R,3S,4S)-2-(2-Amino-2-oxoethyl)-N-((S)-1-(((3R,4S,5S)-1-((S)-2-((1R,2R)-3-(((S)-1-hydroxy-3-phenylpropan-2-yl)amino)-1-methoxy-2-methyl-3-oxopropyl)pyrrolidin-1-yl)-3-methoxy-5-methyl-1-oxoheptan-4-yl)(methyl)amino)-3-methyl-1-oxobutan-2-yl)-2-azabicyclo[2.2.1]heptane-3-carboxamide] (X3-V[Dil][Dolaproine][Phe(ol)]) | 1.21 nM | 25.6 nM | 4.15 nM | 1.09 nM | 5.74 nM |  |  | 
4 | CC[C@H](C)[C@@H]([C@@H](CC(=O)N1CCC[C@H]1[C@H](OC)[C@@H](C)C(=O)N[C@H](CO)Cc1ccccc1)OC)N(C)C(=O)[C@@H](NC(=O)[C@@H]1[C@H]2CC[C@H](C2)N1C(C)=O)C(C)C [Compound 65, (1R,3S,4S)-2-Acetyl-N-((S)-1-(((3R,4S,5S)-1-((S)-2-((1R,2R)-3-(((S)-1-hydroxy-3-phenylpropan-2-yl)amino)-1-methoxy-2-methyl-3-oxopropyl)pyrrolidin-1-yl)-3-methoxy-5-methyl-1-oxoheptan-4-yl)(methyl)amino)-3-methyl-1-oxobutan-2-yl)-2-azabicyclo[2.2.1]heptane-3-carboxamide] (Ac-[X1]V[Dil][Dolaproine][Phe(ol)]) | 3.67 nM | 31.3 nM | 6.88 nM | 0.93 nM | 3.82 nM |  |  | 
5 | CC[C@H](C)[C@@H]([C@@H](CC(=O)N1CCC[C@H]1[C@H](OC)[C@@H](C)C(=O)N[C@H](COC)Cc1ccccc1)OC)N(C)C(=O)[C@@H](NC(=O)[C@@H]1[C@H]2CC[C@H](C2)N1C)C(C)C [Compound 67, (1R,3S,4S)-N-((S)-1-(((3R,4S,5S)-3-Methoxy-1-((S)-2-((1R,2R)-1-methoxy-3-(((S)-1-methoxy-3-phenylpropan-2-yl)amino)-2-methyl-3-oxopropyl)pyrrolidin-1-yl)-5-methyl-1-oxoheptan-4-yl)(methyl)amino)-3-methyl-1-oxobutan-2-yl)-2-methyl-2-azabicyclo[2.2.1]heptane-3-carboxamide] |  | 0.244 nM |  |  |  | 0.369 nM | 0.239 nM | 0.614 nM
6 | CC[C@H](C)[C@@H]([C@@H](CC(=O)N1CCC[C@H]1[C@H](OC)[C@@H](C)C(=O)N[C@@H](Cc1ccccc1)c1cc[nH]n1)OC)N(C)C(=O)[C@@H](NC(=O)[C@@H]1[C@H]2CC[C@H](C2)N1C)C(C)C [Compound 68, (1R,3S,4S)-N-((S)-1-(((3R,4S,5S)-3-Methoxy-1-((S)-2-((1R,2R)-1-methoxy-2-methyl-3-oxo-3-(((S)-2-phenyl-1-(1H-pyrazol-3-yl)ethyl)amino)propyl)pyrrolidin-1-yl)-5-methyl-1-oxoheptan-4-yl)(methyl)amino)-3-methyl-1-oxobutan-2-yl)-2-methyl-2-azabicyclo[2.2.1]heptane-3-carboxamide] | 0.2 nM | 0.596 nM | 0.251 nM | 0.127 nM | 0.428 nM |  |  | 
7 | CC[C@H](C)[C@@H]([C@@H](CC(=O)N1CCC[C@H]1[C@H](OC)[C@@H](C)C(=O)N[C@@H](Cc1ccccc1)c1ncccn1)OC)N(C)C(=O)[C@@H](NC(=O)[C@@H]1[C@H]2CC[C@H](C2)N1C)C(C)C [Compound 69, (1R,3S,4S)-N-((S)-1-(((3R,4S,5S)-3-Methoxy-1-((S)-2-((1R,2R)-1-methoxy-2-methyl-3-oxo-3-(((S)-2-phenyl-1-(pyrimidin-2-yl)ethyl)amino)propyl)pyrrolidin-1-yl)-5-methyl-1-oxoheptan-4-yl)(methyl)amino)-3-methyl-1-oxobutan-2-yl)-2-methyl-2-azabicyclo[2.2.1]heptane-3-carboxamide] | 0.142 nM | 0.092 nM | 0.091 nM | 0.065 nM | 0.189 nM |  |  | 
8 | CC[C@H](C)[C@@H]([C@@H](CC(=O)N1CCC[C@H]1[C@H](OC)[C@@H](C)C(=O)N[C@H](Cc1ccccc1)c1ncccn1)OC)N(C)C(=O)[C@@H](NC(=O)[C@@H]1[C@H]2CC[C@H](C2)N1C)C(C)C [Compound 70, (1R,3S,4S)-N-((S)-1-(((3R,4S,5S)-3-methoxy-1-((S)-2-((1R,2R)-1-methoxy-2-methyl-3-oxo-3-(((R)-2-phenyl-1-(pyrimidin-2-yl)ethyl)amino)propyl)pyrrolidin-1-yl)-5-methyl-1-oxoheptan-4-yl)(methyl)amino)-3-methyl-1-oxobutan-2-yl)-2-methyl-2-azabicyclo[2.2.1]heptane-3-carboxamide] | 3.81 nM | 2.16 nM | 2.36 nM | 1.38 nM | 4.73 nM |  |  | 
9 | CC[C@H](C)[C@@H]([C@@H](CC(=O)N1CCC[C@H]1[C@H](OC)[C@@H](C)C(=O)N[C@@H](Cc1ccccc1)c1nnc(-c2ccccc2)o1)OC)N(C)C(=O)[C@@H](NC(=O)[C@@H]1[C@H]2CC[C@H](C2)N1C)C(C)C [Compound 71, (1R,3S,4S)-N-((S)-1-(((3R,4S,5S)-3-methoxy-1-((S)-2-((1R,2R)-1-Methoxy-2-methyl-3-oxo-3-(((S)-2-phenyl-1-(5-phenyl-1,3,4-oxadiazol-2-yl)ethyl)amino)propyl)pyrrolidin-1-yl)-5-methyl-1-oxoheptan-4-yl)(methyl)amino)-3-methyl-1-oxobutan-2-yl)-2-methyl-2-azabicyclo[2.2.1]heptane-3-carboxamide] | 0.091 nM | 0.119 nM | 0.124 nM | 0.075 nM | 0.352 nM |  |  | 
